This passage reports activation results from patent US9593109B2, “Bicyclic agonists of GPR131 and uses thereof” (CYMABAY THERAPEUTICS, INC., priority 2011, dated 2017).

The target of the test is T1, human GPR131 (Homo sapiens, UniProt Q8TDU6).
T1 construct: expressed in transfected cells
T1 sequence (Q8TDU6 1-330): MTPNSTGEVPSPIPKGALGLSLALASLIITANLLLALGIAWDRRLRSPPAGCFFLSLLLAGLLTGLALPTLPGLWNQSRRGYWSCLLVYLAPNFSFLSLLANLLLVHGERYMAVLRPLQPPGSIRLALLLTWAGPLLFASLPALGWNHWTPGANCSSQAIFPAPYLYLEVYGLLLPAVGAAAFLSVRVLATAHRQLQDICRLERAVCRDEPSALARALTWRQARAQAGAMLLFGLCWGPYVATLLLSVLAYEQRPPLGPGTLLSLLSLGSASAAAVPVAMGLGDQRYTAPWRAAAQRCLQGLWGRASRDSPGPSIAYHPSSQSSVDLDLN
The experiment in a line: Stimulation of cAMP (agonism of GPR131), FRET cAMP assay. The class given is cell-based. As to conditions: 0.5 h; 1.1 μM compound; compared to maximal stimulatory activity of lithocholic acid (LCA) determined at 3.3 μM; stable cell line expressing human GPR131; 37° C. for 30 minutes; read-out: Percent Activity @ 1.1 μM (of 3.3 uM LCA) (%). As to the method: This assay was developed using a stable cell line expressing human GPR131.
To measure cAMP activity in response to GPR131 agonists, GPR131 cells suspended in DMEM/F12 medium with 1 mM IBMX were seeded in 384 well plates at 5000 cells per well. After incubating with test compounds at 37° C. for 30 minutes cAMP was measured using a fluorescene resonance energy transfer cAMP kit from Cis Bio (Bedford, Mass.) according to the manufacturer's instructions. Briefly, cells were lysed, and cAMP levels determined by competitive immunoassay using D2 labeled cAMP, and europium cryptate tagged anti cAMP antibody. Decreases in the FRET signal (fluorescence ratio (665 nm/620 […]) correspond to increases in intracellular cAMP levels.
Activities of test compounds in Table 1 below are expressed as percent activity at 1.1 μM compound compared to the maximal stimulatory activity of lithocholic acid (LCA) (determined at 3.3 μM LCA).
A general note: Cyclic AMP is a second messenger, typically raised through Gs and lowered through Gi signalling.

As to `Cn1ncc2ccc(-n3cnnc3-c3c(-c4cc(Cl)ccc4Cl)nc4ccccn34)cc21` [Compound 520, 6-(3-(2-(2,5-Dichlorophenyl)imidazo[1,2-a]pyridin-3-yl)-4H-1,2,4-triazol-4-yl)-1-methyl-1H-indazole], the activation at 1.1 µM is 95.7%.
With `Cn1cnc2cc(-n3cnnc3-c3c(-c4cc(Cl)ccc4Cl)nc4ccccn34)ccc21` [Compound 521, 5-(3-(2-(2,5-Dichlorophenyl)imidazo[1,2-a]pyridin-3-yl)-4H-1,2,4-triazol-4-yl)-1-methyl-1H-benzo[d]imidazole], the activation at 1.1 µM is 81.6%.
As to `Clc1ccccc1-c1nc2ccccn2c1-c1nncn1-c1ccc2cn[nH]c2c1` [Compound 522, 6-(3-(2-(2-Chlorophenyl)imidazo[1,2-a]pyridin-3-yl)-4H-1,2,4-triazol-4-yl)-1H-indazole], the activation at 1.1 µM was found to be 91.4%.
`Clc1ccc(Cl)c(-c2nc3cccnn3c2-c2nncn2-c2ccc3cn[nH]c3c2)c1` [Compound 523, 3-(4-(1H-Indazol-6-yl)-4H-1,2,4-triazol-3-yl)-2-(2,5-dichlorophenyl)imidazo[1,2-b]pyridazine]: the activation at 1.1 µM came to 95.2%.
On to `Fc1ccc(-c2nn3ccccc3c2-c2nncn2-c2ccc(Cl)cc2)cc1` [Compound 524, 3-(4-(4-Chlorophenyl)-4H-1,2,4-triazol-3-yl)-2-(4-fluorophenyl)pyrazolo[1,5-a]pyridine], for which the activation at 1.1 µM was determined as 99.1%.
Take `O=c1[nH]nc(-c2c(-c3cc(Cl)ccc3Cl)nc3ccccn23)n1-c1ccc(Cl)cc1` [Compound 525, 4-(4-Chlorophenyl)-3-(2-(2,5-dichlorophenyl)imidazo[1,2-a]pyridin-3-yl)-1H-1,2,4-triazol-5(4H)-one]: the activation at 1.1 µM is 83.3%.
As to `S=c1[nH]nc(-c2c(-c3cc(Cl)ccc3Cl)nc3ccccn23)n1-c1ccc(Cl)cc1` [Compound 526, 4-(4-Chlorophenyl)-3-(2-(2,5-dichlorophenyl)imidazo[1,2-a]pyridin-3-yl)-1H-1,2,4-triazole-5(4H)-thione], the activation at 1.1 µM was determined as 98.9%.
Regarding `COc1nnc(-c2c(-c3cc(Cl)ccc3Cl)nc3ccccn23)n1-c1ccc(Cl)cc1` [Compound 527, 3-(4-(4-Chlorophenyl)-5-methoxy-4H-1,2,4-triazol-3-yl)-2-(2,5-dichlorophenyl)imidazo[1,2-a]pyridine], the activation at 1.1 µM is 97.1%.
Next, `CSc1nnc(-c2c(-c3cc(Cl)ccc3Cl)nc3ccccn23)n1-c1ccc(Cl)cc1` [Compound 528, 3-(4-(4-Chlorophenyl)-5-(methylthio)-4H-1,2,4-triazol-3-yl)-2-(2,5-dichlorophenyl)imidazo[1,2-a]pyridine]: 86.8%; `CCc1ccc(-n2cnnc2-c2c(-c3cc(Cl)ccc3Cl)nc3ccccn23)cc1` [Compound 529, 2-(2,5-Dichlorophenyl)-3-(4-(4-ethylphenyl)-4H-1,2,4-triazol-3-yl)imidazo[1,2-a]pyridine]: 99.6%; `CC(C)c1ccc(-n2cnnc2-c2c(-c3cc(Cl)ccc3Cl)nc3ccccn23)cc1` [Compound 530, 2-(2,5-Dichlorophenyl)-3-(4-(4-isopropylphenyl)-4H-1,2,4-triazol-3-yl)imidazo[1,2-a]pyridine]: 98.9%.
For `Clc1ccc(Cl)c(-c2nc3ccccn3c2-c2nncn2-c2ccc(-c3ccccc3)cc2)c1` [Compound 531, 3-(4-([1,1′-Biphenyl]-4-yl)-4H-1,2,4-triazol-3-yl)-2-(2,5-dichlorophenyl)imidazo[1,2-a]pyridine], the activation at 1.1 µM is 88.8%.
For `Fc1ccc(-n2cnnc2-c2c(-c3cc(Cl)ccc3Cl)nc3ccccn23)cc1` [Compound 533, 2-(2,5-Dichlorophenyl)-3-(4-(4-fluorophenyl)-4H-1,2,4-triazol-3-yl)imidazo[1,2-a]pyridine], the activation at 1.1 µM is 100%.
Turning to `Fc1ccccc1-n1cnnc1-c1c(-c2cc(Cl)ccc2Cl)nc2ccccn12` [Compound 534, 2-(2,5-Dichlorophenyl)-3-(4-(2-fluorophenyl)-4H-1,2,4-triazol-3-yl)imidazo[1,2-a]pyridine], the activation at 1.1 µM amounted to 96.8%.
With `Fc1cccc(-n2cnnc2-c2c(-c3cc(Cl)ccc3Cl)nc3ccccn23)c1` [Compound 535, 2-(2,5-Dichlorophenyl)-3-(4-(3-fluorophenyl)-4H-1,2,4-triazol-3-yl)imidazo[1,2-a]pyridine], the activation at 1.1 µM was 99.6%.
For `Cn1ccc2cc(-n3cnnc3-c3c(-c4cc(Cl)ccc4Cl)nc4ccccn34)ccc21` [Compound 536, 2-(2,5-Dichlorophenyl)-3-(4-(1-methyl-1H-indol-5-yl)-4H-1,2,4-triazol-3-yl)imidazo[1,2-a]pyridine], the activation at 1.1 µM worked out at 100%.
With `Cc1ccc(-n2cnnc2-c2c(-c3cc(Cl)ccc3Cl)nc3ccccn23)cn1` [Compound 540, 2-(2,5-Dichlorophenyl)-3-(4-(6-methylpyridin-3-yl)-4H-1,2,4-triazol-3-yl)imidazo[1,2-a]pyridine], the activation at 1.1 µM came to 96%.
Next, `Clc1ccc(Cl)c(-c2nc3ccccn3c2-c2nncn2-c2ccc3ncccc3c2)c1` [Compound 541, 6-(3-(2-(2,5-Dichlorophenyl)imidazo[1,2-a]pyridin-3-yl)-4H-1,2,4-triazol-4-yl)quinoline]: 93.9%; `Cn1ncc2c(-n3cnnc3-c3c(-c4cc(Cl)ccc4Cl)nc4ccccn34)cccc21` [Compound 545, 4-(3-(2-(2,5-Dichlorophenyl)imidazo[1,2-a]pyridin-3-yl)-4H-1,2,4-triazol-4-yl)-1-methyl-1H-indazole]: 90.9%; `Clc1ccc(-n2nnnc2-c2c(-c3cc(Cl)ccc3Cl)nc3occn23)cc1` [Compound 551, 5-(1-(4-Chlorophenyl)-1H-tetrazol-5-yl)-6-(2,5-dichlorophenyl)imidazo[2,1-b]oxazole]: 95.7%.
On to `Clc1ccc(-n2nnnc2-c2c(-c3cc(Cl)ccc3Cl)nc3ccccn23)cc1` [Compound 552, 3-(1-(4-Chlorophenyl)-1H-tetrazol-5-yl)-2-(2,5-dichlorophenyl)imidazo[1,2-a]pyridine], for which the activation at 1.1 µM was 100%.
For the compound `Clc1ccc(-n2cnnc2-c2c(-c3cc(Cl)ccc3Cl)nc3ccccn23)cc1` [Compound 553, 3-(4-(4-Chlorophenyl)-4H-1,2,4-triazol-3-yl)-2-(2,5-dichlorophenyl)imidazo[1,2-a]pyridine], the activation at 1.1 µM is 99.9%.
Take `Clc1ccc(-n2ncnc2-c2c(-c3cc(Cl)ccc3Cl)nc3ccccn23)cc1` [Compound 554, 3-(1-(4-Chlorophenyl)-1H-1,2,4-triazol-5-yl)-2-(2,5-dichlorophenyl)imidazo[1,2-a]pyridine]: the activation at 1.1 µM was found to be 99.9%.
As for `Clc1ccc(-n2nnnc2-c2c(-c3cc(Cl)ccc3Cl)nc3cccnn23)cc1` [Compound 555, 3-(1-(4-Chlorophenyl)-1H-tetrazol-5-yl)-2-(2,5-dichlorophenyl)imidazo[1,2-b]pyridazine], the activation at 1.1 µM was found to be 100%.
Next, `Clc1ccc(-n2nnnc2-c2c(-c3cc(Cl)ccc3Cl)nc3cnccn23)cc1` [Compound 556, 3-(1-(4-Chlorophenyl)-1H-tetrazol-5-yl)-2-(2,5-dichlorophenyl)imidazo[1,2-a]pyrazine]: 88.4%.
Regarding `Clc1ccc(-n2ccnc2-c2c(-c3ccccc3Cl)nc3ccccn23)cc1` [Compound 557, 2-(2-Chlorophenyl)-3-(1-(4-chlorophenyl)-1H-imidazol-2-yl)imidazo[1,2-a]pyridine], the activation at 1.1 µM stood at 99.7%.
With `Clc1ccc(-n2nnnc2-c2c(-c3cc(Cl)ccc3Cl)nc3n2CCCC3)cc1` [Compound 559, 3-(1-(4-Chlorophenyl)-1H-tetrazol-5-yl)-2-(2,5-dichlorophenyl)-5,6,7,8-tetrahydroimidazo[1,2-a]pyridine], the activation at 1.1 µM stood at 94.6%.
For the compound `Clc1ccc(-n2ccnc2-c2c(-c3cc(Cl)ccc3Cl)nc3n2CCCC3)cc1` [Compound 560, 3-(1-(4-Chlorophenyl)-1H-imidazol-2-yl)-2-(2,5-dichlorophenyl)-5,6,7,8-tetrahydroimidazo[1,2-a]pyridine], the activation at 1.1 µM came out at 100%.
Regarding `Clc1ccc(-n2ccnc2-c2c(-c3cc(Cl)ccc3Cl)nc3cccnn23)cc1` [Compound 561, 3-(1-(4-Chlorophenyl)-1H-imidazol-2-yl)-2-(2,5-dichlorophenyl)imidazo[1,2-b]pyridazine], the activation at 1.1 µM was found to be 100%.
Next, `FC(F)(F)c1ccc(-n2nnnc2-c2c(-c3cc(Cl)ccc3Cl)nc3ccccn23)cc1` [Compound 562, 2-(2,5-Dichlorophenyl)-3-(1-(4-(trifluoromethyl)phenyl)-1H-tetrazol-5-yl)imidazo[1,2-a]pyridine]: 97.9%; `FC(F)(F)c1ccc(-n2nnnc2-c2c(-c3cc(Cl)ccc3Cl)nc3cccnn23)cc1` [Compound 563, 2-(2,5-Dichlorophenyl)-3-(1-(4-(trifluoromethyl)phenyl)-1H-tetrazol-5-yl)imidazo[1,2-b]pyridazine]: 99.5%.
